Assay [1] deals with Maximal Electrochoc Seizures (MES). Nature of the assay: Maximal Electrochoc Seizures (MES). Format: in vivo. The following applies: mice.
Assay [2] has as its system brain dopamine turnover. Conditions: mice; cited from earlier work.
Assay [3] deals with Paclitaxel induced neuropathic sensitization (PINS). The experiment in a line: Paclitaxel induced neuropathic sensitization (PINS) in the formalin test of pain. Format: in vivo. The following applies: mice; for suppression of PINS: 35-40 mn central sensitization phase, formalin induced pain. The protocol: Fendiline at 1 or 5 mg/kg, per os (po) suppressed the PINS by 75% or 63%, respectively, in the 35-40 mn central sensitization phase, in the formalin induced pain, in mice (Compound A1).
When fendiline was administered at 25 or 75 mg/kg (po) per os (po), PINS diminished by 181% or 275%, respectively in mice (Compound A2), i.e., less pain reaction than the control which hadn't receive Paclitaxel.

The subject of assay [4] is Pentylenetetrazole (PTZ) convulsions. The experiment in a line: Pentylenetetrazole (PTZ) convulsions. Format: in vivo. Conditions: mice.
Assay [5] deals with brain dopamine turnover. The experiment in a line: brain dopamine turnover, rats. Format: in vivo. Conditions: 5-50 mg/kg ip. An excerpt:
(§1) It could be co-administered with the μ-ORAs amplifying their analgesic activity and, more importantly, protecting against the opioid dependence of the μ-ORAs.

Assay [6] relates to brain dopamine turnover. Nature of the assay: brain dopamine turnover, mice. Format: in vivo. The following applies: 5-50 mg/kg ip.
Source text: as §1

For assay [7], the system named is brain dopamine turnover. Conditions: rats; cited from earlier work.
A further assay has as its target sigma-1 (Homo sapiens, UniProt Q99720). The experiment in a line: sigma-1 affinity. Format: binding.
In another assay the target is sigma-2 receptors (Homo sapiens, UniProt Q5BJF2). The experiment in a line: sigma-2 receptor affinity. Format: binding.

Where two headings read alike, the source gives them in different places.

Chain of sigma-1 (Q99720 whole entry): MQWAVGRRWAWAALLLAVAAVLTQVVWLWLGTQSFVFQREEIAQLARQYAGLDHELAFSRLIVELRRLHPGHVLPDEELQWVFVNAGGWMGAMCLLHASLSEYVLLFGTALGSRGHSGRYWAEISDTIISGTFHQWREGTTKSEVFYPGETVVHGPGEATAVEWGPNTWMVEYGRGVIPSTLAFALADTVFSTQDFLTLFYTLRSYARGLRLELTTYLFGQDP
Chain of sigma-2 receptors (Q5BJF2 whole entry): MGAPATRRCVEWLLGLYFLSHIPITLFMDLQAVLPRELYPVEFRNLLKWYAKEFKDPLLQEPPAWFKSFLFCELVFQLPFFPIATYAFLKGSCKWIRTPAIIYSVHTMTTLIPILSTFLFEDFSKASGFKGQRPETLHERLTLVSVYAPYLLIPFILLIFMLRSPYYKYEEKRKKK

Take `CC(NCCC(c1ccccc1)c1ccccc1)c1ccccc1` (stereo not drawn) [Fendiline, 3,3-diphenyl-N-(1-phenylethyl) propan-1-amine]: the “anticonvulsive activity in MES” value in assay [1] is given as “absence of anticonvulsive activities”. For the same compound, the brain dopamine turnover entry with brain dopamine turnover [2] and with brain dopamine turnover [7] was “decrease of the brain dopamine turnover” each time. Further, the “suppression of PINS” value was found to be 75% in [3] (1 mg/kg po) and 63% in assay [3] (5 mg/kg po). Moreover, the PINS diminished in assay [3] (25 mg/kg po) worked out at 181%; in [3] (75 mg/kg po) it was 275%. In addition, the “anticonvulsive activity in PTZ convulsions” value in assay [4] was “absence of anticonvulsive activities”. Also, the “brain DA turnover” value in the assay on brain dopamine turnover [5] and in the assay with brain dopamine turnover [6] was “decrease of the DA turnover” each time. Also, the figures for the inhibitory constant (Ki) at sigma-1 and on sigma-2 receptors were 0.014 to 0.018 µM and 0.73 to 0.85 µM, respectively.

The values above are taken from patent US20170071879A1, “PROTOTYPICAL ANALGESIC PROFILE OF 3,3-DIPHENYL-N-(1-PHENYLETHYL)PROPAN-1-AMINE (FENDILINE)” (priority 2015, published 2017).
